These compounds were tested against T1, PD-1/PD-L1 protein/protein interaction (recombinant human PD-L1 protein (19-238), recombinant human PD-1 protein (25-167)) (Homo sapiens, UniProt Q9NZQ7) (assay: PD-1/PD-L1 Homogeneous Time-Resolved Fluorescence (HTRF) Binding Assay). Conditions: 25° C., PBS buffer (pH 7.4), 40 minutes preincubation with inhibitors.
T1 construct: Recombinant human PD-L1 protein (19-238) with a His-tag at the C-terminus; purchased AcroBiosystems PD1-H5229 (PD-L1-His); PD1-H5257 (PD-1-Fc)
T1 sequence (Q9NZQ7 19-238): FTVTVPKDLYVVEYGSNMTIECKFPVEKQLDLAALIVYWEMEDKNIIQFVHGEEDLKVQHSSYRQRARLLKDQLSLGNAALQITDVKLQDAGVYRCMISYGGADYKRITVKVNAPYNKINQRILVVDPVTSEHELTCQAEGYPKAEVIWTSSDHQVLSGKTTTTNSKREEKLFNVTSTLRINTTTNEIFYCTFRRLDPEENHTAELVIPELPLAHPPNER
Procedure, shortened: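 Fc-tagged human PD-1 (25-167) and His-tagged PD-L1 (19-238), listed as […] and 10 nM final, preincubated 40 min with inhibitors in PBS pH 7.4, 0.05% Tween-20, 0.1% BSA, 1% DMSO, 25 °C. Eu anti-IgG/APC anti-His added, 60 min, 665/620 nm HTRF ratio; IC50 fitted from percent control activity.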

IC50, ≤ 10 nM:
Cc1c(Nc2nccc3cc(CN[C@H]4CCC[C@@H]4O)cnc23)cccc1-c1cccc(NC(=O)c2nc3c(n2C)CCN(C[C@H]2CC[C@H](C(=O)O)CC2)C3)c1Cl [Example 51, trans-4-((2-(2-chloro-3′-(3-(((1S,2S)-2-hydroxycyclopentylamino)methyl)-1,7-naphthyridin-8-ylamino)-2′-methylbiphenyl-3-ylcarbamoyl)-1-methyl-6,7-dihydro-1H-imidazo[4,5-c]pyridin-5(4H)-yl)methyl)cyclohexanecarboxylic acid]
Cc1c(Nc2nccc3cc(CN4CC[C@@H](O)C4)cnc23)cccc1-c1cccc(NC(=O)c2nc3c(n2C)CCN(C(C)CC(=O)O)C3)c1Cl (stereo partly drawn) [Example 54, 3-(2-(2-chloro-3′-(3-(((R)-3-hydroxypyrrolidin-1-yl)methyl)-1,7-naphthyridin-8-ylamino)-2′-methylbiphenyl-3-ylcarbamoyl)-1-methyl-6,7-dihydro-1H-imidazo[4,5-c]pyridin-5(4H)-yl)butanoic acid]
Cc1c(Nc2nccc3cc(CN4CC[C@H](O)C4)cnc23)cccc1-c1cccc(NC(=O)c2nc3c(n2C)CCN(C[C@H]2CC[C@@H](C(=O)O)CC2)C3)c1Cl [Example 55, cis 4-((2-(2-chloro-3′-(3-(((S)-3-hydroxypyrrolidin-1-yl)methyl)-1,7-naphthyridin-8-ylamino)-2′-methylbiphenyl-3-ylcarbamoyl)-1-methyl-6,7-dihydro-1H-imidazo[4,5-c]pyridin-5(4H)-yl)methyl)cyclohexanecarboxylic acid]
Cc1c(Nc2nccc3cc(CN4CC[C@@](C)(O)C4)cnc23)cccc1-c1cccc(NC(=O)c2nc3c(n2C)CCN(C[C@H]2CC[C@@H](C(=O)O)CC2)C3)c1Cl [Example 56, cis 4-((2-(2-chloro-3′-(3-(((R)-3-hydroxy-3-methylpyrrolidin-1-yl)methyl)-1,7-naphthyridin-8-ylamino)-2′-methylbiphenyl-3-ylcarbamoyl)-1-methyl-6,7-dihydro-1H-imidazo[4,5-c]pyridin-5(4H)-yl)methyl)cyclohexanecarboxylic acid]
Cc1c(Nc2nccc3cc(CN4CC[C@@](C)(O)C4)cnc23)cccc1-c1cccc(NC(=O)c2nc3c(n2C)CCN(C2CCC(C(=O)O)CC2)C3)c1Cl (stereo partly drawn) [Example 57, (R)-4-(2-(2-chloro-3′-(3-((3-hydroxy-3-methylpyrrolidin-1-yl)methyl)-1,7-naphthyridin-8-ylamino)-2′-methylbiphenyl-3-ylcarbamoyl)-1-methyl-6,7-dihydro-1H-imidazo[4,5-c]pyridin-5(4H)-yl)cyclohexanecarboxylic acid]
Cc1c(Nc2nccc3cc(CN4CC[C@](C)(O)C4)cnc23)cccc1-c1cccc(NC(=O)c2nc3c(n2C)CCN(C2CCC(C(=O)O)CC2)C3)c1Cl (stereo partly drawn) [Example 58, (S)-4-(2-(2-chloro-3′-(3-((3-hydroxy-3-methylpyrrolidin-1-yl)methyl)-1,7-naphthyridin-8-ylamino)-2′-methylbiphenyl-3-ylcarbamoyl)-1-methyl-6,7-dihydro-1H-imidazo[4,5-c]pyridin-5(4H)-yl)cyclohexanecarboxylic acid]
Cc1c(Nc2nccc3cc(CN[C@H](C)CO)cnc23)cccc1-c1cccc(NC(=O)c2nc3c(n2C)CCN(CC[C@H]2CC[C@H](C(=O)O)CC2)C3)c1Cl [Example 59, trans 4-(2-(2-(2-chloro-3′-(3-(((R)-1-hydroxypropan-2-ylamino)methyl)-1,7-naphthyridin-8-ylamino)-2′-methylbiphenyl-3-ylcarbamoyl)-1-methyl-6,7-dihydro-1H-imidazo[4,5-c]pyridin-5(4H)-yl)ethyl)cyclohexanecarboxylic acid]
Cc1c(Nc2nccc3cc(CN[C@@H](C)CO)cnc23)cccc1-c1cccc(NC(=O)c2nc3c(n2C)CCN(CC[C@H]2CC[C@H](C(=O)O)CC2)C3)c1Cl [Example 60, trans 4-(2-(2-(2-chloro-3′-(3-(((S)-1-hydroxypropan-2-ylamino)methyl)-1,7-naphthyridin-8-ylamino)-2′-methylbiphenyl-3-ylcarbamoyl)-1-methyl-6,7-dihydro-1H-imidazo[4,5-c]pyridin-5(4H)-yl)ethyl)cyclohexanecarboxylic acid]
Cc1c(Nc2nccc3cc(CN4CC[C@@](C)(O)C4)cnc23)cccc1-c1cccc(NC(=O)c2nc3c(n2C)CCN(CC[C@H]2CC[C@H](C(=O)O)CC2)C3)c1Cl [Example 61, trans-4-(2-(2-(2-chloro-3′-(3-(((R)-3-hydroxy-3-methylpyrrolidin-1-yl)methyl)-1,7-naphthyridin-8-ylamino)-2′-methylbiphenyl-3-ylcarbamoyl)-1-methyl-6,7-dihydro-1H-imidazo[4,5-c]pyridin-5(4H)-yl)ethyl)cyclohexanecarboxylic acid]
Cc1c(NC(=O)c2nc3c(n2C)CCN(CC[C@H]2CC[C@H](C(=O)O)CC2)C3)cccc1-c1cccc(Nc2nccc3cc(CN4CC[C@@H](O)C4)cnc23)c1C [Example 63, trans-4-(2-(2-(3′-(3-(((R)-3-hydroxypyrrolidin-1-yl)methyl)-1,7-naphthyridin-8-ylamino)-2,2′-dimethylbiphenyl-3-ylcarbamoyl)-1-methyl-6,7-dihydro-1H-imidazo[4,5-c]pyridin-5(4H)-yl)ethyl)cyclohexanecarboxylic acid]
Cn1c(C(=O)Nc2cccc(-c3cccc(Nc4nccc5cc(CN6CC[C@@H](O)C6)cnc45)c3Cl)c2Cl)nc2c1CCN(CC[C@H]1CC[C@H](C(=O)O)CC1)C2 [Example 65, Trans-4-(2-(2-(2,2′-dichloro-3′-(3-(((R)-3-hydroxypyrrolidin-1-yl)methyl)-1,7-naphthyridin-8-ylamino)biphenyl-3-ylcarbamoyl)-1-methyl-6,7-dihydro-1H-imidazo[4,5-c]pyridin-5(4H)-yl)ethyl)cyclohexanecarboxylic acid]
Cc1c(NC(=O)c2nc3c(n2C)CCN(CC[C@H]2CC[C@H](C(=O)O)CC2)C3)cccc1-c1cccc(Nc2nccc3cc(CN4CC[C@@H](O)C4)cnc23)c1Cl [Example 66, trans 4-(2-(2-(2′-chloro-3′-(3-(((R)-3-hydroxypyrrolidin-1-yl)methyl)-1,7-naphthyridin-8-ylamino)-2-methylbiphenyl-3-ylcarbamoyl)-1-methyl-6,7-dihydro-1H-imidazo[4,5-c]pyridin-5(4H)-yl)ethyl)cyclohexanecarboxylic acid]
Cc1c(Nc2ncnc3cc(CN4CC[C@@](C)(C(=O)O)C4)cnc23)cccc1-c1cccc(NC(=O)c2nc3c(n2C)CCN(C)C3)c1Cl [Example 67, (R)-1-((4-(2′-chloro-3′-(1,5-dimethyl-4,5,6,7-tetrahydro-1H-imidazo[4,5-c]pyridine-2-carboxamido)-2-methylbiphenyl-3-ylamino)pyrido[3,2-d]pyrimidin-7-yl)methyl)-3-methylpyrrolidine-3-carboxylic acid]
Cc1c(Nc2ncnc3cc(CN4CC[C@@H](O)C4)cnc23)cccc1-c1cccc(NC(=O)c2nc3c(n2C)CCN(C[C@H]2CC[C@H](C(=O)O)CC2)C3)c1Cl [Example 69, trans 4-((2-(2-chloro-3′-(7-(((R)-3-hydroxypyrrolidin-1-yl)methyl)pyrido[3,2-d]pyrimidin-4-ylamino)-2′-methylbiphenyl-3-ylcarbamoyl)-1-methyl-6,7-dihydro-1H-imidazo[4,5-c]pyridin-5(4H)-yl)methyl)cyclohexanecarboxylic acid]
Cc1c(Nc2nccc3cc(CN4CC[C@@H](O)C4)cnc23)cccc1-c1cccc(Nc2nccc3nc(CN4CC[C@@H](C(=O)O)C4)cnc23)c1C [Example 70, (R)-1-((5-(3′-(3-(((R)-3-hydroxypyrrolidin-1-yl)methyl)-1,7-naphthyridin-8-ylamino)-2,2′-dimethylbiphenyl-3-ylamino)pyrido[4,3-b]pyrazin-2-yl)methyl)pyrrolidine-3-carboxylic acid]
Cc1c(Nc2nccc3cc(CN4CC[C@@H](C(=O)O)C4)cnc23)cccc1-c1cccc(Nc2nccc3cc(C4CCCN4)cnc23)c1C (stereo partly drawn) [Example 71, (3R)-1-((8-(2,2′-dimethyl-3′-(3-(pyrrolidin-2-yl)-1,7-naphthyridin-8-ylamino)biphenyl-3-ylamino)-1,7-naphthyridin-3-yl)methyl)pyrrolidine-3-carboxylic acid]
OCCNCc1cnc2c(Nc3cccc(-c4cccc(Nc5nccc6cc(CN7CC[C@@H](O)C7)cnc56)c4Cl)c3Cl)nccn12 [Example 72, (R)-1-((8-(2,2′-dichloro-3′-(3-((2-hydroxyethylamino)methyl)imidazo[1,2-a]pyrazin-8-ylamino)biphenyl-3-ylamino)-1,7-naphthyridin-3-yl)methyl)pyrrolidin-3-ol]
Cc1c(Nc2nccc3cc(CN4CCCC4)cnc23)cccc1-c1cccc(Nc2nccc3cc(CN4CC[C@@H](O)C4)cnc23)c1C [Example 73, (R)-1-((8-((2,2′-dimethyl-3′-((3-(pyrrolidin-1-ylmethyl)-1,7-naphthyridin-8-yl)amino)-[1,1′-biphenyl]-3-yl)amino)-1,7-naphthyridin-3-yl)methyl)pyrrolidin-3-ol]
Cc1c(Nc2nccc3cc(CN4CC[C@H](O)C4)cnc23)cccc1-c1cccc(Nc2nccc3cc(CN4CC[C@@H](O)C4)cnc23)c1Cl [Example 74, (S)-1-((8-((2′-chloro-3′-((3-(((R)-3-hydroxypyrrolidin-1-yl)methyl)-1,7-naphthyridin-8-yl)amino)-2-methyl-[1,1′-biphenyl]-3-yl)amino)-1,7-naphthyridin-3-yl)methyl)pyrrolidin-3-ol]

Reference: US12466822B2, “Heterocyclic compounds as immunomodulators” (Incyte Corporation, priority 2016, dated 2025)
